In ChEMBL document CHEMBL1146421, “1,3-Dimethylisoguanine, a new purine from the marine sponge Amphimedon viridis” (1997):

Experiments:
[1] = Increase in contractions of electrically stimulated guinea pig longitudinal muscle/myenteric plexus at 2 mM; type: functional, Cavia porcellus, Muscle tissue
Cavia porcellus = species on record: Cavia porcellus; assay: Increase in contractions of electrically stimulated guinea pig longitudinal muscle/myenteric plexus; type: functional, tissue-based; details: Muscle tissue
[2] = Increase in contractions of electrically stimulated guinea pig longitudinal muscle/myenteric plexus at 0.1 mM; type: functional, Cavia porcellus, Muscle tissue

Cn1c(=N)c2nc[nH]c2n(C)c1=O
Activity [1]: 34%

C/N=c1\ncn(C)c2c1[nH]c(=O)n2C [CAISSARONE]
Activity (Cavia porcellus): Dose-dependent effect
Activity [2]: 80%
